Measurements as given in US20250163056A1, “NONMUSCLE MYOSIN II INHIBITORS” (The University of Florida Research Foundation, Inc., priority 2018, published 2025).

How the values were obtained:
Bovine cardiac myosin = Bovine cardiac myosin (Bos taurus (Bovine), UniProt Q9BE39); experiment: Cardiac muscle myosin II actin-activated ATPase assay (NADH-coupled); type: biochemical; design: key to Ratio CMMII:NMII Ki/EC50: NMII-sel: no Ki value for cardiac myosin II could be determined; the compounds had no detectable inhibitory properties versus the cardiac myosin II; conditions: for Ki: 300 nM cardiac myosin, 10 μM actin, 25° C., read-out: CMMII KI; for Ratio CMMII:NMII Ki/EC50: cardiac myosin II Ki over nonmuscle myosin II EC50
Bovine cardiac myosin, sequence (Q9BE39 whole entry): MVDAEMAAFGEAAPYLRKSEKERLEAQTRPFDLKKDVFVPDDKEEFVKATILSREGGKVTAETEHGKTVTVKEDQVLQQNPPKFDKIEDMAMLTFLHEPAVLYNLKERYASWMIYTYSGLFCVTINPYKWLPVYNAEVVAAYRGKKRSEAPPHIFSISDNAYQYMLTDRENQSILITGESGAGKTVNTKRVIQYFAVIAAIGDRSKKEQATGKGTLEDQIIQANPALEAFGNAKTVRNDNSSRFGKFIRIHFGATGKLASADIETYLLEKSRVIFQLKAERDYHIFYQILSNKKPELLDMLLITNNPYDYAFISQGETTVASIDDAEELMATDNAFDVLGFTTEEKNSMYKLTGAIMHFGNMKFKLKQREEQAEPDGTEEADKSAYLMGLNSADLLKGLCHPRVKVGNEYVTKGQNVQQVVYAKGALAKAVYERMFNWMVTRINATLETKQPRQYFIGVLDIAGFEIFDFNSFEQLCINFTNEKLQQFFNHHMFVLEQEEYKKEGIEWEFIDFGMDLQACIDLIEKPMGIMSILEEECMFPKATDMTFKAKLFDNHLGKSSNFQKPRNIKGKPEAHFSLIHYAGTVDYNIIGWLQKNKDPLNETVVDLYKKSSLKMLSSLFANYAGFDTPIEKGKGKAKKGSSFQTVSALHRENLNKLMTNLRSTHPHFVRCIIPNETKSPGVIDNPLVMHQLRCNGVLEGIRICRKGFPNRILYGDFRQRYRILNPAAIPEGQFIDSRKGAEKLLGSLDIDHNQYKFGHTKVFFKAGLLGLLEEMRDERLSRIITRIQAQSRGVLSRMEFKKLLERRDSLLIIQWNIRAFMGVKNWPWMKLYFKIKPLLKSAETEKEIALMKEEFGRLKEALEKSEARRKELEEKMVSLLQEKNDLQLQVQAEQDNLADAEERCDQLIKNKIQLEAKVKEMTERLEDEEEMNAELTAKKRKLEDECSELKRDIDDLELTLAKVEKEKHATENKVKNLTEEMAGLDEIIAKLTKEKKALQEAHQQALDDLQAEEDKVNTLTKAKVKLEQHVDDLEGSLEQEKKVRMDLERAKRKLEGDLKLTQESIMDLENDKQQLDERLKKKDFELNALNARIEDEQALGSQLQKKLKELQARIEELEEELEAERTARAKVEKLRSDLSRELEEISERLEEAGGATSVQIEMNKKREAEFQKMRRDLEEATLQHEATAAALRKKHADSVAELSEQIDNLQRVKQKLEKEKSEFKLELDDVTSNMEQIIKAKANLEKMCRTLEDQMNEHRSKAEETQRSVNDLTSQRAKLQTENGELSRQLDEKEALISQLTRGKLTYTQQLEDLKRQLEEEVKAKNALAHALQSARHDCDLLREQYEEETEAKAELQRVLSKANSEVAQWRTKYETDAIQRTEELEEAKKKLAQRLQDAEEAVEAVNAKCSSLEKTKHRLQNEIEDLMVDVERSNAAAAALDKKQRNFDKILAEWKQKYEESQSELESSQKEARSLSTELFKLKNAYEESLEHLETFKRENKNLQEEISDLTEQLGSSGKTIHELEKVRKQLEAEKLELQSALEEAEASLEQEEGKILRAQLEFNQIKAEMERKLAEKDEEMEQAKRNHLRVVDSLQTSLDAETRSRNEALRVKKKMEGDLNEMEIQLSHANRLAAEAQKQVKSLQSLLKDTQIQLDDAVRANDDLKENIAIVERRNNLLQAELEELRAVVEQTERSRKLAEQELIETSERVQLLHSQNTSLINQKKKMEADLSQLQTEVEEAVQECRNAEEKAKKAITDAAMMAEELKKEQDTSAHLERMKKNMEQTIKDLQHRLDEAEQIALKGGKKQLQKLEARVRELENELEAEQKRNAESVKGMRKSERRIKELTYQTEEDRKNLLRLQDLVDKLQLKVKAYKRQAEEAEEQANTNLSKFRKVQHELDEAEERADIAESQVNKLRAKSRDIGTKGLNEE
Bovine cardiac myosin, sequence (P85100 whole entry partner): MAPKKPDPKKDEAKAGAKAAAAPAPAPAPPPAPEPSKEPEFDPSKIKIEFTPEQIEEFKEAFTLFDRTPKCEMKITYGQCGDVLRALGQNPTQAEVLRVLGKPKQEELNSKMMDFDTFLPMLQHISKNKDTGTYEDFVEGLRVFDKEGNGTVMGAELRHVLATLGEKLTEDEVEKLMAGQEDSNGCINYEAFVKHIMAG
Bovine cardiac myosin, sequence (Q3SZE5 whole entry partner): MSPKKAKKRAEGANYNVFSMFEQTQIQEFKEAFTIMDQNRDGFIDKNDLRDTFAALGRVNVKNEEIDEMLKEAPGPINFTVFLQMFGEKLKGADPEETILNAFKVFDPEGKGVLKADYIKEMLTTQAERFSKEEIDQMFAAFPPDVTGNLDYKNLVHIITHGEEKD
Method in brief: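 Inhibitory constants came from a quadratic one-to-one binding fit of 16-point dose-responses (highest final 50 uM, triplicate). Rates were NADH-calibrated fluorescence slopes over 30 min at 25° C, with 300 nM bovine cardiac myosin, 10 μM actin and 1 mM ATP coupled through PK/LDH in pH 7.0 MOPS buffer.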

Rabbit skeletal myosin = experiment: Skeletal muscle myosin II actin-activated ATPase assay; type: biochemical; conditions: 20 nM skeletal muscle myosin II; read-out: SKMMII KI
Method in brief: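 Inhibitory constants come from a quadratic one-site fit of 16-point, triplicate dose-response data, highest compound concentration 50 uM. Rates are slopes of NADH fluorescence decline over 30 min, coupling ATP turnover of 20 nM rabbit skeletal myosin II with 10 μM actin and 1 mM ATP via PK/LDH, pH 7.0, 25 °C.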

[1] = Photostability, percentage remaining undegraded under illumination or in the dark; conditions: for Photostability 4 hours: percentage remaining undegraded after 4 hours illumination; for Photostability 24 hours: percentage remaining undegraded after 24 hours illumination; for Photostability Dark (24 h): percentage remaining undegraded in the dark

SMILES | Ki (Bovine cardiac myosin) [µM] | Ratio CMMII:NMII Ki/EC50 (Bovine cardiac myosin) | Ki (Rabbit skeletal myosin) [µM] | Photostability 4 hours [1] [%] | Photostability 24 hours [1] [%] | Photostability Dark (24 h) [1] [%]
Cc1cc2c(cc1C)C(=O)[C@]1(O)CCN(c3ccc4c(c3)OCCN4)C1=N2 [BPN-0028552] | 26 | 21.7 | 2.5 | 87.7 | 62.2 | 91.8
Cc1ccc2c(c1)C(=O)[C@]1(O)CCN(c3ccc4nc(CO)ccc4c3)C1=N2 [BPN-0028554] | 120 | 12.4 | 9 | 87.6 | 35.9 | 97.6
Cc1cc2c(cc1C)C(=O)[C@]1(O)CCN(c3ccc4oc(CO)cc4c3)C1=N2 [BPN-0028555] | 4.6 | 6.1 | 1.5 | 4.7 | <1 | 93.6
Cc1cc(N2CC[C@@]3(O)C(=O)c4cc(C)c(C)cc4N=C23)ccn1 [BPN-0028616] | 200 | 13.3 | 11 | 93.2 | 71.0 | 89.4
CCC1=CC2N=C3N(c4ccc5ncccc5c4)CC[C@@]3(O)C(=O)C2S1 (stereo partly drawn) [BPN-0028625] | 300 | 56.6 | 8.9 | 84.4 | 84.6 | 81.8
Cc1ccc2c(c1)C(=O)[C@]1(O)CCN(c3cnc(C#N)c(Cl)c3)C1=N2 [BPN-0028646] | – | NMII-sel | 1.3 | >99 | 97.1 | 98.2
COc1ccc(N2CC[C@@]3(O)C(=O)c4cc(C)c(C)cc4N=C23)cn1 [BPN-0028648] | 4.4 | 3.4 | 0.26 | 52.5 | <1 | 98.4
Cc1cc2c(cc1C)C(=O)[C@]1(O)CCN(c3cnc(CO)c(Cl)c3)C1=N2 [BPN-0028649] | 30 | 7.1 | 2.7 | 96.7 | 73.1 | 98.4
CNc1cc(N2CC[C@@]3(O)C(=O)c4cc(C)c(C)cc4N=C23)ccn1 [BPN-0028650] | 40 | 4.4 | 12 | 88.7 | 62.6 | 93.4
Cc1ccc2c(c1)C(=O)[C@]1(O)CCN(c3ccc4ncc(N)cc4c3)C1=N2 [BPN-0028652] | 80 | 9.6 | 1.3 | 86.2 | 22.8 | 98.5
Cc1cc2c(cc1C)C(=O)[C@]1(O)CCN(c3cnc(C)c(C)c3)C1=N2 [BPN-0028694] | 16 | 8.4 | 1.7 | 55.3 | 11.2 | 98.0
Cc1cc(C)c2c(c1)N=C1N(c3ccc4ncccc4c3)CC[C@@]1(O)C2=O [BPN-0028697] | 60 | 7.5 | 1.9 | 88.4 | 25.4 | 97.3
Cc1cc2c(cc1C)C(=O)[C@]1(O)CCN(c3cnc(C)c(C)c3)C1=N2 [BPN-0028731] | 40 | 7.7 | 2.2 | 37.6 | 7.4 | >99
Cc1cc2c(cc1C)C(=O)[C@]1(O)CCN(c3cnc(CO)c(C)c3)C1=N2 [BPN-0028733] | 27 | 3.1 | 6.8 | 82.1 | 14.8 | 96.6
Cc1cc2c(cc1C)C(=O)[C@]1(O)CCN(c3cnc4c(c3)NCCO4)C1=N2 [BPN-0028734] | 15 | 5.0 | 2.9 | 76 | <1 | 96.3
Cc1cc2c(cc1C)C(=O)[C@]1(O)CCN(c3ccc4ncc(CO)cc4c3)C1=N2 [BPN-0028736] | 90 | 6.9 | 1.5 | 64 | 2 | 95.3

SMILES | Ki (Bovine cardiac myosin) [µM] | Ratio CMMII:NMII Ki/EC50 (Bovine cardiac myosin) | Ki (Rabbit skeletal myosin) [µM] | Photostability 4 hours [1] [%] | Photostability 24 hours [1] [%] | Photostability Dark (24 h) [1] [%]
Cc1cc2c(cc1C)C(=O)[C@]1(O)CCN(c3ccc4c(c3)COCCN4)C1=N2 [BPN-0028758] | 210 | 4.1 | 40 | 90.9 | 55.3 | 93.3
Cc1cc2c(cc1C)C(=O)[C@]1(O)CCN(c3cnc(C#N)c(C)c3)C1=N2 [BPN-0028760] | 16 | 4.3 | 0.94 | 87.9 | 83 | 87.6
Cc1cc2c(cc1C)C(=O)[C@]1(O)CCN(c3ccc4c(c3)NCCO4)C1=N2 [BPN-0028790] | 2.4 | 3.8 | 1 | 92.7 | 64 | 95.3
COc1ncc(N2CC[C@@]3(O)C(=O)c4cc(C)c(C)cc4N=C23)cc1Cl [BPN-0028820] | – | NMII-sel | 3 | 80.9 | 62.7 | 94.2
Cc1cc2c(cc1C)C(=O)[C@]1(O)CCN(c3cnc4c(c3)OCCN4)C1=N2 [BPN-0028821] | 12 | 12.5 | 0.77 | 89.8 | 29.1 | 98.5
Cc1ccc2cc(N3CC[C@@]4(O)C(=O)c5sc(C)cc5N=C34)ccc2n1 [BPN-0028863] | – | NMII-sel | 2.8 | 98.8 | 94.7 | 99
CCc1cc(N2CC[C@@]3(O)C(=O)c4cc(C)c(C)cc4N=C23)ccn1 [BPN-0028864] | – | NMII-sel | 12 | 97.4 | 88.4 | 98.4
Cc1cc2c(cc1C)C(=O)[C@]1(O)CCN(c3ccc4ncc(CN(C)C)cc4c3)C1=N2 [BPN-0028866] | – | NMII-sel | 400 | 77.8 | 2.9 | 97.8
CCc1ccc2cc(N3CC[C@@]4(O)C(=O)c5cc(C)c(C)cc5N=C34)ccc2n1 [BPN-0028867] | – | NMII-sel | 1.3 | 69.9 | 1 | 98.7
Cc1cc2c(cc1C)C(=O)[C@]1(O)CCN(c3ccc4nc(C)c(C)cc4c3)C1=N2 [BPN-0028868] | 24 | 31.6 | 0.23 | 46.7 | 43.3 | 98.9
Cc1cc2c(cc1C)C(=O)[C@]1(O)CCN(c3ccc4nc(CN(C)C)ccc4c3)C1=N2 [BPN-0028897] | 300 | 33.3 | 110 | 82.8 | 5.4 | 98.4
Cc1ccc2cc(N3CC[C@@]4(O)C(=O)c5cc(C)sc5N=C34)ccc2n1 [BPN-0028898] | 95 | 31.7 | 1.9 | 93.4 | 58.1 | 96.4
Cc1cc2c(cc1C)C(=O)[C@]1(O)CCN(c3ccc4nc(N)ccc4c3)C1=N2 [BPN-0028899] | – | NMII-sel | 3.8 | 70.8 | 29.7 | 97.8
CCc1nc2cc(N3CC[C@@]4(O)C(=O)c5cc(C)c(C)cc5N=C34)ccc2s1 [BPN-0028918] | 11 | 5.5 | 0.64 | 54.2 | 7.8 | >99
Cc1cc2c(cc1C)C(=O)[C@]1(O)CCN(c3ccc4sc(C(C)C)nc4c3)C1=N2 [BPN-0028919] | – | NMII-sel | 1.4 | 48.4 | <1 | 98.5
Cc1cc2c(cc1C)C(=O)[C@]1(O)CCN(c3cnc4c(c3)CCCC4)C1=N2 [BPN-0028920] | – | NMII-sel | 3.9 | 36.6 | 2.5 | 98.4
